Measured values as given in article PMC11062922 (Nature Chemical Biology, 2023).

Experiments:
GRK6 = target: T1, GRK6 (Homo sapiens, UniProt P43250); assay: Kinobeads two-dose competition binding: GRK6; conditions: target GRK6
T1 construct: endogenous in cells

CDK1 = assay: Kinobeads competition binding: CDK1; set-up: species or system human; conditions: target CDK1
CDK17 = assay: Kinobeads competition binding: CDK17; set-up: species or system human; conditions: target CDK17
CDK2 = target: T2, CDK2 (Homo sapiens, UniProt P24941); assay: Kinobeads competition binding: CDK2; conditions: target CDK2
T2 construct: endogenous in cells

CDK5 = target: T3, CDK5 (Homo sapiens, UniProt Q00535); assay: Kinobeads competition binding: CDK5; conditions: target CDK5
T3 construct: endogenous in cells

CDK9 = assay: Kinobeads competition binding: CDK9; set-up: species or system human; conditions: target CDK9
COX5A = assay: Kinobeads competition binding: COX5A; set-up: species or system human; conditions: target COX5A;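 also: share of total target engagement due to this protein at one drug concentration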
CSNK1G1 = assay: Kinobeads competition binding: CSNK1G1; set-up: species or system human; conditions: target CSNK1G1;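 also: share of total target engagement due to this protein at one drug concentration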
CSNK1G3 = target: T4, CSNK1G3 (Homo sapiens, UniProt Q9Y6M4); assay: Kinobeads competition binding: CSNK1G3; conditions: target CSNK1G3;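 also: share of total target engagement due to this protein at one drug concentration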
T4 construct: endogenous in cells
Text: Supplement 41589_2023_1459_MOESM4_ESM.xlsx, sheet "CATDS matrix" | column: CSNK1G3

DCK = assay: Kinobeads competition binding: DCK; set-up: species or system human; conditions: target DCK;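 also: share of total target engagement due to this protein at one drug concentration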
DNAJA1 = assay: Kinobeads competition binding: DNAJA1; set-up: species or system human; conditions: target DNAJA1;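 also: share of total target engagement due to this protein at one drug concentration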
DYRK1A = target: T5, DYRK1A (Homo sapiens, UniProt Q13627); assay: Kinobeads competition binding: DYRK1A; conditions: target DYRK1A
T5 construct: endogenous in cells

EIF2AK1 = assay: Kinobeads competition binding: EIF2AK1; set-up: species or system human; conditions: target EIF2AK1;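 also: share of total target engagement due to this protein at one drug concentration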
EPHA2 = target: T6, EPHA2 (Homo sapiens, UniProt P29317); assay: Kinobeads competition binding: EPHA2; conditions: target EPHA2
T6 construct: endogenous in cells
Text: Supplement 41589_2023_1459_MOESM4_ESM.xlsx, sheet "CATDS matrix" | column: EPHA2

FLT4 = target: T7, FLT4 (Homo sapiens, UniProt P35916); assay: Kinobeads competition binding: FLT4; conditions: target FLT4;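 also: share of total target engagement due to this protein at one drug concentration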
T7 construct: endogenous in cells

FN3KRP = assay: Kinobeads competition binding: FN3KRP; set-up: species or system human; conditions: target FN3KRP;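 also: share of total target engagement due to this protein at one drug concentration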
FYN = target: T8, FYN (Homo sapiens, UniProt P06241); assay: Kinobeads competition binding: FYN; conditions: target FYN;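 also: share of total target engagement due to this protein at one drug concentration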
T8 construct: endogenous in cells
Text: Supplement 41589_2023_1459_MOESM4_ESM.xlsx, sheet "CATDS matrix" | column: FYN

GSPT1;GSPT2 = assay: Kinobeads competition binding: GSPT1;GSPT2; set-up: species or system human; conditions: target GSPT1;GSPT2
HSP90AA1 = assay: Kinobeads competition binding: HSP90AA1; set-up: species or system human; conditions: target HSP90AA1;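 also: share of total target engagement due to this protein at one drug concentration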
HSP90B1 = target: T9, HSP90B1 (Homo sapiens, UniProt P14625); assay: Kinobeads competition binding: HSP90B1; conditions: target HSP90B1;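 also: share of total target engagement due to this protein at one drug concentration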
T9 construct: endogenous in cells

INSR = assay: Kinobeads competition binding: INSR; set-up: species or system human; conditions: target INSR;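 also: share of total target engagement due to this protein at one drug concentration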
MAP2K2 = assay: Kinobeads competition binding: MAP2K2; set-up: species or system human; conditions: target MAP2K2
MAPK1 = assay: Kinobeads competition binding: MAPK1; set-up: species or system human; conditions: target MAPK1
MAPK11 = assay: Kinobeads competition binding: MAPK11; set-up: species or system human; conditions: target MAPK11
MAPK14 = target: T10, MAPK14 (Homo sapiens, UniProt Q16539); assay: Kinobeads competition binding: MAPK14; conditions: target MAPK14
T10 construct: endogenous in cells

MELK = assay: Kinobeads competition binding: MELK; set-up: species or system human; conditions: target MELK;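 also: share of total target engagement due to this protein at one drug concentration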
NNT = assay: Kinobeads competition binding: NNT; set-up: species or system human; conditions: target NNT;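 also: share of total target engagement due to this protein at one drug concentration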
PDGFRB = target: T11, PDGFRB (Homo sapiens, UniProt P09619); assay: Kinobeads competition binding: PDGFRB; conditions: target PDGFRB;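 also: share of total target engagement due to this protein at one drug concentration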
T11 construct: a mixture of lysates from five cancer cell lines; endogenous in cells
Text: Supplement 41589_2023_1459_MOESM4_ESM.xlsx, sheet "CATDS matrix" | column: PDGFRB

PDXK = target: T12, PDXK (Homo sapiens, UniProt O00764); assay: Kinobeads competition binding: PDXK; conditions: target PDXK;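 also: share of total target engagement due to this protein at one drug concentration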
T12 construct: a mixture of lysates from five cancer cell lines; endogenous in cells
T12 sequence (O00764 1-312): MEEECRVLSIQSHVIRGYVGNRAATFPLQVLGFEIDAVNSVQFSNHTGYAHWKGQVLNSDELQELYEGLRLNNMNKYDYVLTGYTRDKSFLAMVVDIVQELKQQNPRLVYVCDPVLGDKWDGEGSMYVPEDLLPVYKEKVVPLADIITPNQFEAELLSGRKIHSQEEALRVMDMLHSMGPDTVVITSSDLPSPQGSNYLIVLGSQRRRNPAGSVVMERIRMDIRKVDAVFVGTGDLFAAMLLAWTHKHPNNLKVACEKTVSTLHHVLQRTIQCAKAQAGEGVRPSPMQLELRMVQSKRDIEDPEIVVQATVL
Text: Supplement 41589_2023_1459_MOESM4_ESM.xlsx, sheet "CATDS matrix" | column: PDXK

PIK3C2A = assay: Kinobeads competition binding: PIK3C2A; set-up: species or system human; conditions: target PIK3C2A;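 also: share of all-target engagement taken by this protein at its own Kdapp concentration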
PIK3C2B = assay: Kinobeads competition binding: PIK3C2B; set-up: species or system human; conditions: target PIK3C2B
PIM2 = target: T13, PIM2 (Homo sapiens, UniProt Q9P1W9); assay: Kinobeads competition binding: PIM2; conditions: target PIM2
T13 construct: a mixture of lysates from five cancer cell lines; endogenous in cells
Text: Supplement 41589_2023_1459_MOESM4_ESM.xlsx, sheet "CATDS matrix" | column: PIM2

PKN2 = target: T14, PKN2 (Homo sapiens, UniProt Q16513); assay: Kinobeads competition binding: PKN2; conditions: target PKN2;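 also: share of total target engagement due to this protein at one drug concentration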
T14 construct: a mixture of lysates from five cancer cell lines; endogenous in cells
Text: Supplement 41589_2023_1459_MOESM4_ESM.xlsx, sheet "CATDS matrix" | column: PKN2

T7 sequence (P35916 25-1363): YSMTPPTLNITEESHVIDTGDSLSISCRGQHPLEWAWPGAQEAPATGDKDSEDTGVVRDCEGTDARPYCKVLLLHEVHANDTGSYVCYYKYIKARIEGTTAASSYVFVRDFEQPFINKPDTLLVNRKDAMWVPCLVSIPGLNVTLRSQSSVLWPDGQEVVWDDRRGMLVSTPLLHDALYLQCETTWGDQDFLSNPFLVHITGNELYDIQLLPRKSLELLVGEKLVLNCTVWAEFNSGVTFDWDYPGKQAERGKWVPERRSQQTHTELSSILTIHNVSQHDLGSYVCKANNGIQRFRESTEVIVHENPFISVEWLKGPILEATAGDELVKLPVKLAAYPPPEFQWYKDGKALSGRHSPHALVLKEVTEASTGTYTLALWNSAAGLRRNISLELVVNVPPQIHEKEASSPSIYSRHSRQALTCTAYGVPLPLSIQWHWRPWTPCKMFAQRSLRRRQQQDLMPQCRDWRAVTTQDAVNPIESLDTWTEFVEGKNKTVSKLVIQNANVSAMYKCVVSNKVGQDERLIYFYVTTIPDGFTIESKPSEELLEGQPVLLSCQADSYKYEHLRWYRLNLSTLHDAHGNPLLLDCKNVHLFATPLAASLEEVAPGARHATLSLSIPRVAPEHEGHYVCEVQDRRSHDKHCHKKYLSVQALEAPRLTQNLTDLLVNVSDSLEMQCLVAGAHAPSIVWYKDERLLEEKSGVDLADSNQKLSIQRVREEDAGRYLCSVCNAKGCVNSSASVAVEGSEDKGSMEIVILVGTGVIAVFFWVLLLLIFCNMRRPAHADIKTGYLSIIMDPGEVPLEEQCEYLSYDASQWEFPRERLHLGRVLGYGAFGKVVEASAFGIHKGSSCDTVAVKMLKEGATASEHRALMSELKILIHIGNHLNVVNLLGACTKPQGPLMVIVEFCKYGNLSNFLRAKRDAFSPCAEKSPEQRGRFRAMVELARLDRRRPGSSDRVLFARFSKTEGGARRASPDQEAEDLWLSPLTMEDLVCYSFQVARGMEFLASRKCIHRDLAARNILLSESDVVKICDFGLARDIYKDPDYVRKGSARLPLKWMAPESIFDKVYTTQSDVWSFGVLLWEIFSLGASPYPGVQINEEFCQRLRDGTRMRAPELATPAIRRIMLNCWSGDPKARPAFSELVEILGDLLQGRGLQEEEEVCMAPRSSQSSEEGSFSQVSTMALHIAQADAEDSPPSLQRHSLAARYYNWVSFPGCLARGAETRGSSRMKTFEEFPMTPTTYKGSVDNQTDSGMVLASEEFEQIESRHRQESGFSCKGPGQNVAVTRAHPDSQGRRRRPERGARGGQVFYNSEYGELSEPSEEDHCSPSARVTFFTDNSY
T8 sequence (P06241 whole entry): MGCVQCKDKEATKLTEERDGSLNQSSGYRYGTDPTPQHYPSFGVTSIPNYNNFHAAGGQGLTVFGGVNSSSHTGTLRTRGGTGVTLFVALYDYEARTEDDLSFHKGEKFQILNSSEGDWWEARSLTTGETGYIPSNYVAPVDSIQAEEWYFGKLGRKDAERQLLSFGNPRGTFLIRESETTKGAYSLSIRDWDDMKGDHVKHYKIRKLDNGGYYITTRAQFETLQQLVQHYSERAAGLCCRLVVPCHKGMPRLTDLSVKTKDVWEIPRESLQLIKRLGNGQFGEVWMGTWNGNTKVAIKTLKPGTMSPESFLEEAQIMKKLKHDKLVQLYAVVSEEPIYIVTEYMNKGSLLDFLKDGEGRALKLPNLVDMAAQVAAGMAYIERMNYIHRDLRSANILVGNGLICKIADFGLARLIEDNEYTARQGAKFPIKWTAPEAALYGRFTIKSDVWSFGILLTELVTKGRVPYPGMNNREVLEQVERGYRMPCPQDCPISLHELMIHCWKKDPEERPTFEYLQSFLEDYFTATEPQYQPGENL
T11 sequence (P09619 33-1106): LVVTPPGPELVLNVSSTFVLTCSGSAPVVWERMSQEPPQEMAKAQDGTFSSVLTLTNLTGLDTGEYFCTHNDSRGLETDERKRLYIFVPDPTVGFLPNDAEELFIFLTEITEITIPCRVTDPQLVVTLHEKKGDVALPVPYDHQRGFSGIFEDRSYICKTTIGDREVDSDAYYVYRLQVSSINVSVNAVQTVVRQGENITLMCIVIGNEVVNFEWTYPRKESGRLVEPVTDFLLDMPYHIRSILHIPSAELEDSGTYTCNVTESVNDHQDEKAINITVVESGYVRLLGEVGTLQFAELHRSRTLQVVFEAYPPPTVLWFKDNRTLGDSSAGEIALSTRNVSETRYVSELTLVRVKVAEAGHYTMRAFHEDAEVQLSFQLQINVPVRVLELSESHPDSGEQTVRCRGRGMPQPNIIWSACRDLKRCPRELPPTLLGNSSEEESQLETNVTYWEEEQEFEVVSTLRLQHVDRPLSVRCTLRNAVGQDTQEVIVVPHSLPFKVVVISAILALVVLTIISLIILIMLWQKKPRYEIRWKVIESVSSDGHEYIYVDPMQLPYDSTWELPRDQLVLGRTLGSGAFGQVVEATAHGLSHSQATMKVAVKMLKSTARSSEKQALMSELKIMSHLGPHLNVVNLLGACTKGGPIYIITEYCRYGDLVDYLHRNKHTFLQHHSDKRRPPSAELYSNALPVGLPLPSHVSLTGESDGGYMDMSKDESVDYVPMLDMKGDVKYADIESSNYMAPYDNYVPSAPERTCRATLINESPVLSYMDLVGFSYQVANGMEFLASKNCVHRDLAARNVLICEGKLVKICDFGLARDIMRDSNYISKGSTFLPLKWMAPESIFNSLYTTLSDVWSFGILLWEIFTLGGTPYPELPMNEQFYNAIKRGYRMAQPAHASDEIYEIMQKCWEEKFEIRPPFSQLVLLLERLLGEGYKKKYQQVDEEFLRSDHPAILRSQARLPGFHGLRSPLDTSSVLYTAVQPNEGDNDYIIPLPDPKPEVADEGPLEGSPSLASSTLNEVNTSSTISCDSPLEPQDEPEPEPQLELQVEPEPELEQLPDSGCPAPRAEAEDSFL
T4 sequence (Q9Y6M4 whole entry): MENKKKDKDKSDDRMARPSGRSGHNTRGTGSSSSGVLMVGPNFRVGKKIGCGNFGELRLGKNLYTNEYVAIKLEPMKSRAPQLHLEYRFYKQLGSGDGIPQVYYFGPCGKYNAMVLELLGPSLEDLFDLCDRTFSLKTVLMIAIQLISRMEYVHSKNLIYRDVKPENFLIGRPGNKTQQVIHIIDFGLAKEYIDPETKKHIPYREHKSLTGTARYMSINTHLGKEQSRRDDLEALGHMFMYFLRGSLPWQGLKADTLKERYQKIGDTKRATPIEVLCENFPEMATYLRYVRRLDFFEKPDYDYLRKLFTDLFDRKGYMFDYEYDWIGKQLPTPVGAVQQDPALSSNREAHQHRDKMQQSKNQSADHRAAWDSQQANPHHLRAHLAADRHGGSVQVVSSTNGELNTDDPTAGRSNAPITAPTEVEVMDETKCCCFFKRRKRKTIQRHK
T3 sequence (Q00535 whole entry): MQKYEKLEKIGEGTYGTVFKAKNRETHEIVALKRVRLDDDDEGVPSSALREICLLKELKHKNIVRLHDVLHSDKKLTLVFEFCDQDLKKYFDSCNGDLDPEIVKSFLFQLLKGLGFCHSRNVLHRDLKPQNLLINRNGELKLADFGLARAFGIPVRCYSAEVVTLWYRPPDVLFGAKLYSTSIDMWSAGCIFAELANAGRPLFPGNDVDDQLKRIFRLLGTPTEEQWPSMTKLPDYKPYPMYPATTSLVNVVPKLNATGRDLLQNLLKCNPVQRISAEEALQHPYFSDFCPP
T1 sequence (P43250 whole entry): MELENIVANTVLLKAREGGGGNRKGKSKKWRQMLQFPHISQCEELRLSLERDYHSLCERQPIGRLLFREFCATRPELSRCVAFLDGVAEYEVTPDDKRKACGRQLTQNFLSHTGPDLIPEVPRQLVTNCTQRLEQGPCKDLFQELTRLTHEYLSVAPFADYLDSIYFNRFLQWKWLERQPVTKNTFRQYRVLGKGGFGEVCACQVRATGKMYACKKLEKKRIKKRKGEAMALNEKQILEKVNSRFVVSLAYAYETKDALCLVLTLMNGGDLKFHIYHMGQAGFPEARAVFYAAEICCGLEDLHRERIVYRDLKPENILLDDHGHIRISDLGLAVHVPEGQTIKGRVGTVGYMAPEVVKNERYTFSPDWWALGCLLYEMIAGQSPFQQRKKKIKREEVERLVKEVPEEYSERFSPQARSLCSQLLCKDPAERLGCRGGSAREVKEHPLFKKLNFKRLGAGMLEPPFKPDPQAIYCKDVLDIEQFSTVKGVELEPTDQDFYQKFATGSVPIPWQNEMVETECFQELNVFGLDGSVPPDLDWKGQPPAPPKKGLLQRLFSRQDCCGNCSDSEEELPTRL
T9 sequence (P14625 22-803): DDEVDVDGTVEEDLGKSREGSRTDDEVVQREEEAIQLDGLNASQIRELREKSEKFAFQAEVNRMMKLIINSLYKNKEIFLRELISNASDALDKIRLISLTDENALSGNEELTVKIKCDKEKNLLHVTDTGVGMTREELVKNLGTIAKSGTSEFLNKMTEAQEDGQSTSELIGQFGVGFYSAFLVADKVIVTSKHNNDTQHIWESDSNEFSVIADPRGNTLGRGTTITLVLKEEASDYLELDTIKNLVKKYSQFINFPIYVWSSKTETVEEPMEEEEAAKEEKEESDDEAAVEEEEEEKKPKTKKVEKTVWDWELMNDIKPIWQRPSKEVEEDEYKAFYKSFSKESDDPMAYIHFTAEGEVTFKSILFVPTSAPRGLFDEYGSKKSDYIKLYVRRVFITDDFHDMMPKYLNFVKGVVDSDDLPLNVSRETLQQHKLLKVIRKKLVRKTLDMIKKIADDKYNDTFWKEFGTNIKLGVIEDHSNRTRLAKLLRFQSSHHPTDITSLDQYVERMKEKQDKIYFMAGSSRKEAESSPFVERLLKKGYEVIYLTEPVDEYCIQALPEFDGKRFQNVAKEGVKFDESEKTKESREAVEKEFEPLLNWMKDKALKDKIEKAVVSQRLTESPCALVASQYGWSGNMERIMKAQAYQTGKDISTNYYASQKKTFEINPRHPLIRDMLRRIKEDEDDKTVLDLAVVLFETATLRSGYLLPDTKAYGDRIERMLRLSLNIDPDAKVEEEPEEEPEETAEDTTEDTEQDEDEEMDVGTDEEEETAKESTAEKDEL

SMILES	CATDS (GRK6)	CATDS (CDK17)	CATDS (CDK2)	CATDS (CDK5)	CATDS (CDK9)	CATDS (COX5A)	CATDS (CSNK1G3)	CATDS (DCK)	CATDS (DNAJA1)	CATDS (EPHA2)	CATDS (FN3KRP)	CATDS (FYN)	CATDS (HSP90AA1)	CATDS (HSP90B1)	CATDS (NNT)	CATDS (PDGFRB)	CATDS (PDXK)	CATDS (PIK3C2A)	CATDS (PIM2)	CATDS (PKN2)	further results
Nc1ncnc2[nH]c(-c3ccccc3)nc12 [AH5015_KCGS]	0	0	0	0	0	0	0	0	0	0	0	0	0	0	0	0	0	0	0	0	CATDS (CDK1): 0; CATDS (CSNK1G1): 0; CATDS (DYRK1A): 0; CATDS (EIF2AK1): 0; CATDS (FLT4): 0; CATDS (GSPT1;GSPT2): 0; CATDS (INSR): 0; CATDS (MAP2K2): 0; CATDS (MAPK1): 0; CATDS (MAPK11): 0; CATDS (MAPK14): 0; CATDS (MELK): 0; CATDS (PIK3C2B): 0
CCc1cc2c(cc1N1CCC(N3CCOCC3)CC1)C(C)(C)c1[nH]c3cc(C#N)ccc3c1C2=O [Alectinib]	0	0	0	0	0	0	0	0	0	0	0	0	0	0	0	0	0	0	0	0	CATDS (CDK1): 0; CATDS (CSNK1G1): 0; CATDS (DYRK1A): 0; CATDS (EIF2AK1): 0; CATDS (FLT4): 0; CATDS (GSPT1;GSPT2): 0; CATDS (INSR): 0; CATDS (MAP2K2): 0; CATDS (MAPK1): 0; CATDS (MAPK11): 0; CATDS (MAPK14): 0; CATDS (MELK): 0; CATDS (PIK3C2B): 0
CCN1CCN(Cc2ccc(Nc3ncc(F)c(-c4cc(F)c5nc(C)n(C(C)C)c5c4)n3)nc2)CC1 [Abemaciclib]	0	0.02553	–	0	0.02947	0	0	0	0	0	0	0	0	0	0	0	0	0	0	0	CATDS (CSNK1G1): 0; CATDS (EIF2AK1): 0; CATDS (FLT4): 0; CATDS (GSPT1;GSPT2): 0; CATDS (INSR): 0; CATDS (MAP2K2): 0; CATDS (MAPK1): 0; CATDS (MAPK11): 0; CATDS (MAPK14): 0; CATDS (MELK): 0; CATDS (PIK3C2B): 0
CN(C)C/C=C/C(=O)Nc1cc2c(Nc3ccc(F)c(Cl)c3)ncnc2cc1O[C@H]1CCOC1 [Afatinib]	0	–	0	–	–	0	0	0	0	0	0	0	0	0	0	0	0	0	0	0	–
N#CC1(c2ccc(NC(=O)c3cccnc3NCc3ccncc3)cc2)CCCC1 [Apatinib]	0	0	0	0	0	0	0	0	0	0	0	0	0	0	0	0	0	0	0	0	CATDS (CDK1): 0; CATDS (CSNK1G1): 0; CATDS (DYRK1A): 0; CATDS (EIF2AK1): 0; CATDS (FLT4): 0; CATDS (GSPT1;GSPT2): 0; CATDS (INSR): 0; CATDS (MAP2K2): 0; CATDS (MAPK1): 0; CATDS (MAPK11): 0; CATDS (MAPK14): 0; CATDS (MELK): 0; CATDS (PIK3C2B): 0
